Data as given in patent US9556242B2, “Method for regulating circadian rhythms” (ANYGEN CO., LTD., priority 2011, dated 2017).
Entries after “also recorded” stand apart in the source; their conditions may differ.

System: per2 promoter
Assay: Per2-luciferase activity in cultured mouse brain sections including SCN after NQ peptide treatment
Assay type: cell-based
Settings: for effects in the Per2 phase advance or delay: 100 nM for 4 hours; for phase-advance effect on Per2 circadian activity: NQ peptide forms and mutants treated to incubated brain section including SCN (FIG. 15); for phase changes / activity period of per2 promoter: treated at the highest point of per2 activity; for phase changes / activity period of per2 promoter / free-running period after treatment: 5 μM (FIG. 12); for free-running period after treatment: treated at the lowest point of per2 activity
Description: Animals used in this experiment were transgenic mice in which the construct inserted Luciferase gene behind per2 promoter was knocked-in. The mice were sacrificed. The brain was speedily isolated and sectioned in a thickness of 400 μm including SCN. The mouse brain tissue sections were incubated in media containing 1% penicillin/streptomycin antibiotics, 25% Horse Serum, 25% Hank's Buffered Salt Solution (HBSS), 50% Minimum Essential Medium (MEM) and 0.3 mM luciferin. At 5 days after the incubation, the synthetic NQ peptides were treated with 5 μM of final concentration. Then, luciferase activity derived from changes of per2 promoter activities was observed.
The NQ peptides were treated with 100 nM of the concentration at 2, 6, 10, 14, 20 and 22 hours after the peak in Per2 activity with the 24-hour intervals wave. The treatment was maintained 4 hours. Then, the media were changed.
The NQ peptides were treated with 2 nM, 20 nM, 200 nM and 2000 nM of the concentrations for 4 hours to the sections at 10 hours after the peak in Per2 activity. Then, the media were changed to the original media (50% minimum essential medium, 25% gey's balanced salt solution, 25% horse serum, 36 mM glucose, and 100 units/ml aerosolized antibiotics) containing 0.3 mM luciferin to limit drug duration of the NQ peptide.
To achieve this, the present inventors have synthesized mutants: deletion mutant sequencing from first Asn to tenth Leu among the amino acid sequences as set forth in SEQ ID NO:2; optical isomer mutant 1 in which the second Trp residue is modified to D-form Trp; and optical isomer mutant 2 in which the eleventh Lys residue is modified to D-form Lys.
The NQ peptide as set forth in SEQ ID NO:2 or 3, or the NQ peptide mutants were respectively treated to the incubated brain section including SCN. Particularly, the NQ peptide as set forth in SEQ ID NO:2 found in humans and mouse was simultaneously treated with the a-NQ-S antibody as neutralization substance to elucidate those specific effects with more accuracy. […] Therefore, it could be understood that the carboxyl-terminus sequencing from the eleventh Lys residue to Gln as well as the second Trp residue and the eleventh Lys residue in the amino acid sequence of NQ peptide as set forth in SEQ ID NO:2 are very important in physiological activity.

Row | Substance | effects in the Per2 phase advance or delay (treated at 2 hours after the peak in Per2 activity (FIG. 13)) | effects in the Per2 phase advance or delay (treated at 6 hours after the peak in Per2 activity (FIG. 13)) | effects in the Per2 phase advance or delay (treated at 10 hours after the peak in Per2 activity (FIG. 13)) | effects in the Per2 phase advance or delay (treated at 14 hours after the peak in Per2 activity (FIG. 13)) | effects in the Per2 phase advance or delay (treated at 20 hours after the peak in Per2 activity (FIG. 13)) | effects in the Per2 phase advance or delay (treated at 22 hours after the peak in Per2 activity (FIG. 13)) | highest effect time (after peak in Per2 activity) (100 nM, phase-dependent treatment (FIG. 13)) [h] | dose dependence of Per2 phase-advance effect (2, 20, 200, 2000 nM for 4 hours at 10 hours after the peak (lowest point) in Per2 activity (FIG. 14)) | concentration range in which Per2 expression period was advanced proportionally (4 hours treatment at 10 hours after the peak in Per2 activity (FIG. 14)) [nM] | phase-advance effect on Per2 circadian activity (listed as NQ peptide as set forth in SEQ ID NO:2) | free-running period advanced by (synthetic NQ peptide treated at the lowest point in Per2 phase, mouse brain section (FIG. 12)) | phase changes / activity period of per2 promoter | phase changes / activity period of per2 promoter (listed as synthetic NQ peptide) | highest concentration of the NQ peptide (phase-advance effect) (treated at the lowest point in Per2 phase (FIG. 14)) [nM] | free-running period after treatment | free-running period after treatment (listed as synthetic NQ peptide) | activity period of per2 promoter (treated at the point in which per2 shows the highest activity, 5 μM) | phase-advance effect on Per2 circadian activity
1 | NWTPQAMLYLKGAQ-NH2 [NQ peptide] | negligible or barely shown | negligible or barely shown | significantly advanced | significantly advanced | significantly advanced | negligible or barely shown; also recorded: negligible | 10 | advanced proportionally to the concentration; also recorded: dose-dependent manner | 20 to 200 | caused the advance effects in circadian activity; also recorded: changed the Per2 phase; also recorded: showed phase-advance effects of Per2 | approximately 2.80 hours | not changed | negligible or barely shown | 200 | approximately 22.3 hours | approximately 22.87 hours | approximately 24 hours | –
2 | NQ peptide as set forth in SEQ ID NO:3: form of the NQ peptide found in rat; His residue at the carboxyl-terminus instead of the amide group (NWTPQAMLYLKGAQGH; NQ Peptide 3) | – | – | – | – | – | – | – | – | – | – | – | – | – | – | – | – | – | caused the advance effects in circadian activity; also recorded: changed the Per2 phase; also recorded: showed phase-advance effects of Per2
